In data set [1] the test system is Chlorella sp., Chlorella kessleri, and Nostoc commune. In words: Algal efficacy on dry paint film (Modified ASTM 5589), pool Cs + Ck + Nc. In kind it is cell-based. The method, then:
(§1) A single biocide or blend of biocides was post added into white acrylic latex paint free of biocides to give a maximum total active ingredient/s concentration tested. This paint was then diluted with a biocide free acrylic latex paint to give targeted concentrations for the testing. Depending on the type of biocide blends tested, the total biocides concentrations varies from 400 to 3300 ppm. After biocides addition or dilution, each sample was hand mixed for at least a minute until uniformity was achieved. Each of the paint samples as well as a control sample (containing no biocide) were used to prepare films on black plastic-vinyl chloride/acetate copolymer panels (Leneta Company, Mahwah, N.J.) using a 0.0762 mm (3 mil) bird bar applicator. The panels were thoroughly dried for at least 2 days avoiding direct exposure to sunlight. Square discs (0.5 inch^2; 1.27 cm^2) were cut out from each panel and were used as the substrate for fungal and algal efficacy tests. This sample size allowed for an agar border when the sample disc was placed into the well of the test plate. Each sample was tested in duplicate.
(§2) The appropriate media (BOLD'S 3N for Chlorophytes, BG-11 for Cyanobacteria, and PDA for fungi) were used to support microbial growth. The test plates were maintained at room temp (25° C.-26° C.), in a cycled light-dark environment, for four weeks for algae. Plates for fungal challenge tests were maintained at 30° C. for four weeks. At the end of the incubation period the samples were scored for percent area covered by visible microbial growth.
(§3) Algal efficacy was tested as follows (Modified ASTM 5589).
(§4) ASTM 5589 is a standard accelerated test method for determining resistance of various coatings (including paints) to algal defacement. To accommodate for high-throughput screening, this method was scaled down from petri plates to 6-well plates. A single coupon was placed with a pair of sterile forceps at the center of the agar plug (on top) with the painted surface facing upwards. Algal inoculums were prepared by mixing equal concentrations (approximately 1×10^6 cfu/ml) and equal volumes (depending on number of samples to be inoculated) of like growing organisms.
(§5) In this synergy study, three pool of mixed algae were prepared as the test inoculum, Gloeocapsa sp. and Oscillatoria sp. a mix of cyanobacteria grown on BG-11 media; Chlorella sp., Chlorella kessleri, and Nostoc commune are unicellular chlorphytes that were mixed and grown on Bold media; Trentepohlia aurea, Tretepohlia odorata, and Calotrix parientina are filamentous algae that were mixed and grown on Bold media.
(§6) Each well that contained a tested coupon was inoculated with 400 μl of organism mixture (approximately 1×10^6 cfu/ml) making sure that the whole surface (paint film as well as the agar surrounding it) was evenly covered. The plates were incubated at room temp (25° C.-26° C.) with cyclic exposure to light (OTT-Lite model # OTL4012P, 40 Watt, 26 KLumen) and dark phases, for a period of four weeks. The total area covered was evaluated at the end of each week according to percent area covered in 5% increments.
(§7) The SI is calculated based on F. C. Kull et.
(§8) SI value of <1 in the formula indicates a synergism of the blended biocides exists.
(§9) NE=no end point at the concentration tested that will meet the percent inhibition criteria set in each SI calculation.

For data set [2], the system named is Cladosporium herbarum was mixed with Trichoderma viride. The experiment in a line: Fungal efficacy on dry paint film (Modified ASTM 5590), pool TV + Ch. It is filed as cell-based. Conditions: four weeks. As for the experimental part:
(§10) Each sample was tested in duplicate.
(§11) Fungal efficacy was tested as follows (Modified ASTM 5590).

In data set [3] the test system is Aspergillus niger was mixed with Penicillium funiculosum. In words: Fungal efficacy on dry paint film (Modified ASTM 5590), pool An + Pf. It is filed as cell-based. Conditions: for % Inhibition An + Pf: four weeks; for % Inhibition, An-Pf: at the total conc printed for the same blend. As for the experimental part: as §1, §2, §11
ASTM 5590 is a standard accelerated test method for determining resistance of various coatings (including paints) to fungal defacement. To accommodate for high-throughput screening, this method was scaled down from petri plates to 6-well plates. To set up the test, an agar plug was placed at the bottom of each well of the sterile 6-well plate. A single coupon was placed with a pair of sterile forceps at the center of the agar plug (on top) with the painted surface facing upwards. Fungal inoculums were prepared by mixing equal concentrations (approximately 1×10^6 cfu/ml) and equal volumes (depending on number of samples to be tested) of like growing organisms. For this synergy study, three pools of mixed fungi were prepared as the test inoculum. Cladosporium herbarum was mixed with Trichoderma viride, Aspergillus niger was mixed with Penicillium funiculosum and Alternaria alternata was mixed with Aureobasidium pullulans. Each well was inoculated with 400 microliter of organism mixture (approximately 1×10^6 cfu/ml) making sure that the whole surface (paint film as well as the agar surrounding it) was evenly covered. The plates were incubated at 30° C. in presence of moisture, for a period of four weeks. The total percent area covered was evaluated and recorded at the end of each week and recorded in increments of 5%.
as §7, §8, §9

For data set [4], the system named is marine algae (Skeletonema costatum). Conditions: cited from earlier work.
For data set [5], the system named is Trentepohlia aurea, Tretepohlia odorata, and Calotrix parientina. In words: Algal efficacy on dry paint film (Modified ASTM 5589), pool Cp + To + Ta. Conditions: for % Inhibition Cp + To + Ta: four weeks; for % Inhibition, Cal-Tre: at the total conc printed for the same blend. In kind it is cell-based. The method, then:
as §1, §2, §3, §4, §5, §6, §7, §8, §9

Data set [6] has as its system green algae (Selenastrum capricornutum). Conditions: cited from earlier work; for EbC50: biomass.
Data set [7] concerns diatom (Navicula pelliculosa). Conditions: 7 day; cited from earlier work.
The subject of data set [8] is Gloeocapsa sp. and Oscillatoria sp. The experiment in a line: Algal efficacy on dry paint film (Modified ASTM 5589), pool Gs + Os. In kind it is cell-based. Conditions: for % Inhibition Gs + Os: four weeks; for % Inhibition, Os-Gl: at the total conc printed for the same blend. The method, then: as §1, §2, §3, §4, §5, §6, §7, §8, §9
Data set [9] concerns blue-green algae (Anabaena flos-aquae). Conditions: 7 day; cited from earlier work.
The next data set has as its system various algae. Conditions: cited from earlier work.
The conditions of data set [10]: cited from earlier work.
For data set [11], the system named is Alternaria alternata was mixed with Aureobasidium pullulans. In words: Fungal efficacy on dry paint film (Modified ASTM 5590), pool Aa + Ap. It is filed as cell-based. Conditions: 672 h, four weeks. The method, then:
as §10, §11

Setting [12] is: Nostoc commune, 672 h, read-out: % Inhibition Cs + Ck + Nc.
Setting [13] is: 672 h, read-out: % Inhibition An + Pf.
The mark [14] stands for this setting: Trentepohlia aurea, 672 h, read-out: % Inhibition Cp + To + Ta.
Where [15] appears, read: 672 h, read-out: % Inhibition Gs + Os.

Converted amounts (≈) assume the structure as drawn. Read-outs that look alike come from different tables or passages of the source.

`O=C(O)CNCP(=O)(O)O` [glyphosate, N-(phosphonomethyl)glycine]: the inhibition at 750 ppm was 37.5% in [1] (setting [12]); 2.5% in data set [2] (672 h, 750 ppm in paint); 0% in data set [3] (setting [13]); 0% in [5] (setting [14]); 15% in data set [8] (setting [15]); 7.5% in data set [11] (750 ppm in paint). The inhibition at 1500 ppm in [1] (setting [12]) stood at 60%; in [2] (672 h, 1500 ppm in paint) it was 50%; in data set [3] (setting [13]), 5%; in data set [5] (setting [14]), 10%; in data set [8] (setting [15]), 72.5%; in data set [11] (1500 ppm in paint) it was 20%. For the same compound, the inhibition at 2500 ppm worked out at 80% in data set [1] (setting [12]); 72.5% in data set [2] (672 h, 2500 ppm in paint); 10% in [3] (setting [13]); 7.5% in data set [5] (setting [14]); 90% in data set [8] (setting [15]); 67.5% in [11] (2500 ppm in paint). Besides, the EC50 is 1.3 µg/mL (≈ 7.69 µM) in [4] (96 hr), 0.64 µg/mL (≈ 3.79 µM) in data set [4] (7 day), 42 µg/mL (≈ 248 µM) in data set [7] and 15 µg/mL (≈ 88.7 µM) in [9]. Also, the EbC50 in [6] (72 hr) is 485 mg/L; in [6] (7 day), 13.8 mg/L. Moreover, the ErC50 in data set [6] (72 hr, growth rate) was 460 mg/L. In the data set on various algae, the “activity against various algae” value is reported as “relatively low”. In [10], the solubility in water entry is “relatively high”.

zinc glyphosate: the “% Inhibition TV + Ch” value in data set [2] (750 ppm in paint) was determined as 50%; in data set [2] (1500 ppm in paint) it was 75%; in data set [2] (2500 ppm in paint), 90%. The “% Inhibition An + Pf” value in [3] (750 ppm in paint) came out at 20%; in data set [3] (1500 ppm in paint) it was 27.5%; in data set [3] (2500 ppm in paint), 30%. In data set [3] (An-Pf), the “% Inhibition, An-Pf” value was found to be 100%. Also, the “% Inhibition Cp + To + Ta” value in data set [5] (750 ppm in paint), in data set [5] (1500 ppm in paint) and in [5] (2500 ppm in paint) was 0% throughout. Also, the “% Inhibition, Cal-Tre” value in data set [5] (Cal-Tre) was 100%. Moreover, the “% Inhibition Gs + Os” value is recorded as 15% in [8] (750 ppm in paint), 72.5% in data set [8] (1500 ppm in paint) and 90% in [8] (2500 ppm in paint). In addition, the “% Inhibition, Os-Gl” value in data set [8] (Os-Gl) worked out at 100%.

As to zinc pyrithione [ZPT], the “% Inhibition, Ch-No” value in data set [1] (at the total conc printed for the same blend, Ch-No) worked out at 80%. Further, in data set [1] (total active in paint, Ch-No), the “Total conc (minimum inhibitory concentration chosen for SI), Ch-No” value was determined as 412.5 pppm. Besides, the “% Inhibition, An-Pf” value in [3] (An-Pf) is on record as 0%. For the same compound, in [3] (total active in paint, An-Pf), the “Total conc (minimum inhibitory concentration chosen for SI), An-Pf” value is recorded as 3300 pppm. In addition, in [5] (Cal-Tre), the “% Inhibition, Cal-Tre” value amounted to 40%. Moreover, the “Total conc (minimum inhibitory concentration chosen for SI), Cal-Tre” value in data set [5] (total active in paint, Cal-Tre) turned out to be 3300 pppm. In addition, in [8] (Os-Gl), the “% Inhibition, Os-Gl” value was 100%. Besides, the “Total conc (minimum inhibitory concentration chosen for SI), Os-Gl” value in data set [8] (total active in paint, Os-Gl) came to 3300 pppm.

These data come from US8691726B2, “Synergistic combination of a glyphosate compound and ZPT” (Dow Global Technologies LLC, priority 2010, dated 2014).
